Test system: human maximum recommended daily dose, FDA database
Assay: DSSTox (FDAMDD) FDA Maximum (Recommended) Daily Dose Database
Settings: stronger effect = lower value
Procedure, shortened: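 MRDD values come from clinical trials with daily oral dosing, usually for 3–12 months, for the average adult, in mg/day converted to mg/kg-bw/day assuming 60 kg. Antineoplastic mg/m2 doses are divided by 37. Activity score maps log10(1/MRDD mmol) onto 1–100.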

[1] = TherapeuticCategory: sedative, hypnotic
[2] = TherapeuticCategory: antibacterial
[3] = TherapeuticCategory: antihypertensive
[4] = TherapeuticCategory: diagnostic aid

For `Nc1nc(N)c2nc(-c3ccccc3)c(N)nc2n1`, which maximum recommended daily dose (mmol/kg-bw/day) (TherapeuticCategory: diuretic) is on record?
Its maximum recommended daily dose (mmol/kg-bw/day) is 0.0131.

With `CC12C=CC(C(=O)O[C@H]3CC[C@H]4[C@@H]5CCC6=CC(=O)CC[C@@H]6[C@H]5CC[C@]34C)(CC1)CC2` as the compound, how does the maximum recommended daily dose (mmol/kg-bw/day) (TherapeuticCategory: anabolic) read?
Its maximum recommended daily dose (mmol/kg-bw/day) is 0.00788.

With `CCC(C)C1(CC)C(=O)NC(=O)NC1=O` (stereo not drawn) as the compound, how does the maximum recommended daily dose (mmol/kg-bw/day) [1] read?
Its maximum recommended daily dose (mmol/kg-bw/day) is 0.00942.

`COC1[C@@H](O[C@@H]2O[C@H](C)[C@@H](O[C@H]3C[C@@](C)(O)[C@H](OC(=O)CC(C)C)[C@H](C)O3)[C@H](N(C)C)[C@H]2O)[C@@H](CC=O)C[C@@H](C)[C@@H](O)/C=C/C=C/C[C@@H](C)OC(=O)C[C@H]1OC(C)=O` (stereo partly drawn) was tested. Which maximum recommended daily dose (mmol/kg-bw/day) [2] did it give?
The maximum recommended daily dose (mmol/kg-bw/day) was 0.0604.

`C[C@H]1C[C@H]2[C@@H]3CCC4=CC(=O)C=C[C@]4(C)[C@@]3(F)[C@@H](O)C[C@]2(C)[C@@]1(OC(=O)c1ccccc1)C(=O)CO` was tested. Which maximum recommended daily dose (mmol/kg-bw/day) (TherapeuticCategory: glucocorticoid) did it give?
Its maximum recommended daily dose (mmol/kg-bw/day) is 0.000302.

For `NCC1(CC(=O)O)CCCCC1`, which maximum recommended daily dose (mmol/kg-bw/day) (TherapeuticCategory: anticonvulsant) is on record?
The maximum recommended daily dose (mmol/kg-bw/day) was 0.117.

`COc1cc2nc(N3CCN(C(=O)C4CCCO4)CC3)nc(N)c2cc1OC` (stereo not drawn) was tested. Which maximum recommended daily dose (mmol/kg-bw/day) [3] did it give?
Its maximum recommended daily dose (mmol/kg-bw/day) is 0.00086.

With `CCCOC(=O)c1ccc(O)cc1` as the compound, how does the maximum recommended daily dose (mmol/kg-bw/day) (TherapeuticCategory: pharmaceutic aid) read?
The maximum recommended daily dose (mmol/kg-bw/day) was 0.0555.

With `O=C(O)c1cccnc1` as the compound, how does the maximum recommended daily dose (mmol/kg-bw/day) (TherapeuticCategory: vitamin) read?
The maximum recommended daily dose (mmol/kg-bw/day) was 0.102.

`CN(C)CCCN1c2ccccc2Sc2ccc(C(F)(F)F)cc21` was tested. Which maximum recommended daily dose (mmol/kg-bw/day) (TherapeuticCategory: antipsychotic) did it give?
Its maximum recommended daily dose (mmol/kg-bw/day) is 0.00709.

`NS(=O)(=O)c1cc2c(cc1C(F)(F)F)NC(Cc1ccccc1)NS2(=O)=O` (stereo not drawn) was tested. Which maximum recommended daily dose (mmol/kg-bw/day) (TherapeuticCategory: diuretic, antihypertensive) did it give?
Its maximum recommended daily dose (mmol/kg-bw/day) is 0.00079.

With `CN1c2ccccc2Sc2ccc(CC(=O)O)cc21` as the compound, how does the maximum recommended daily dose (mmol/kg-bw/day) (TherapeuticCategory: anti inflammatory) read?
Its maximum recommended daily dose (mmol/kg-bw/day) is 0.0461.

How did the maximum recommended daily dose (mmol/kg-bw/day) (TherapeuticCategory: skeletal muscle relaxant) turn out when `Cc1c(-c2ccccc2)n(/N=N/n2c(-c3ccccc3)c(C)[n+]3ccccc23)c2cccc[n+]12` was run?
Its maximum recommended daily dose (mmol/kg-bw/day) is 0.00165.

How did the maximum recommended daily dose (mmol/kg-bw/day) [2] turn out when `COCC1=C(C(=O)O)N2C(=O)[C@@H](NC(=O)/C(=N\OC)c3csc(N)n3)[C@H]2SC1` was run?
Its maximum recommended daily dose (mmol/kg-bw/day) is 0.0234.

With `C=C1c2cccc(O)c2C(O)=C2C(=O)[C@]3(O)C(O)=C(C(N)=O)C(=O)[C@@H](N(C)C)[C@@H]3[C@@H](O)[C@H]12` as the compound, how does the maximum recommended daily dose (mmol/kg-bw/day) [2] read?
Its maximum recommended daily dose (mmol/kg-bw/day) is 0.0339.

`Cc1ccc(N(CC2=NCCN2)c2cccc(O)c2)cc1` was tested. Which maximum recommended daily dose (mmol/kg-bw/day) (TherapeuticCategory: antihypertensive, diagnostic aid) did it give?
The maximum recommended daily dose (mmol/kg-bw/day) was 0.000594.

`C#C[C@]1(O)CC[C@H]2[C@@H]3CCC4=CC(=O)CC[C@]4(C)[C@H]3CC[C@@]21C` was tested. Which maximum recommended daily dose (mmol/kg-bw/day) (TherapeuticCategory: progestogen) did it give?
Its maximum recommended daily dose (mmol/kg-bw/day) is 0.00534.

For `CN(C(=O)CC(=O)N(C)c1c(I)c(C(=O)NC(CO)C(O)CO)c(I)c(C(=O)NC(CO)C(O)CO)c1I)c1c(I)c(C(=O)NC(CO)C(O)CO)c(I)c(C(=O)NC(CO)C(O)CO)c1I` (stereo not drawn), which maximum recommended daily dose (mmol/kg-bw/day) [4] is on record?
The maximum recommended daily dose (mmol/kg-bw/day) was 0.0615.

With `C=CCC1(C(C)CC)C(=O)NC(=O)NC1=O` (stereo not drawn) as the compound, how does the maximum recommended daily dose (mmol/kg-bw/day) [1] read?
Its maximum recommended daily dose (mmol/kg-bw/day) is 0.0148.

With `NCc1ccccc1CC(=O)N[C@@H]1C(=O)N2C(C(=O)O)=C(CSc3nnnn3CC(=O)O)CS[C@H]12` as the compound, how does the maximum recommended daily dose (mmol/kg-bw/day) [2] read?
The maximum recommended daily dose (mmol/kg-bw/day) was 0.0641.

`O=C1OC(c2ccc(O)c(S(=O)(=O)O)c2)(c2ccc(O)c(S(=O)(=O)O)c2)c2c(Br)c(Br)c(Br)c(Br)c21` was tested. Which maximum recommended daily dose (mmol/kg-bw/day) [4] did it give?
Its maximum recommended daily dose (mmol/kg-bw/day) is 0.00597.

How did the maximum recommended daily dose (mmol/kg-bw/day) [3] turn out when `CCOC(=O)[C@H](CCc1ccccc1)N[C@@H](C)C(=O)N1[C@H](C(=O)O)C[C@H]2CCCC[C@@H]21` was run?
Its maximum recommended daily dose (mmol/kg-bw/day) is 0.00124.

With `C[C@@H]1[C@H](O)[C@@H](C)/C=C/C=C/C=C/C=C/C=C/C=C/C=C/[C@H](O[C@@H]2O[C@H](C)[C@@H](O)[C@H](N)[C@@H]2O)C[C@@H]2O[C@](O)(C[C@@H](O)C[C@@H](O)[C@H](O)CC[C@@H](O)C[C@@H](O)CC(=O)O[C@H]1C)C[C@H](O)[C@H]2C(=O)O` as the compound, how does the maximum recommended daily dose (mmol/kg-bw/day) (TherapeuticCategory: antifungal) read?
Its maximum recommended daily dose (mmol/kg-bw/day) is 0.00162.

Which maximum recommended daily dose (mmol/kg-bw/day) (TherapeuticCategory: anxiolytic) does the source give for `O=C1Nc2ccc(Cl)cc2C(c2ccccc2)=NC1O` (stereo not drawn) here?
Its maximum recommended daily dose (mmol/kg-bw/day) is 0.00698.

With `Clc1ccccc1CN1CCc2sccc2C1` as the compound, how does the maximum recommended daily dose (mmol/kg-bw/day) (TherapeuticCategory: platelet aggregation inhibitor) read?
The maximum recommended daily dose (mmol/kg-bw/day) was 0.0158.

With `O=C(OC1CC2CCC(C1)[N+]21CCCC1)C(O)(c1ccccc1)c1ccccc1` (stereo not drawn) as the compound, how does the maximum recommended daily dose (mmol/kg-bw/day) (TherapeuticCategory: antispasmodic) read?
Its maximum recommended daily dose (mmol/kg-bw/day) is 0.000467.

Which maximum recommended daily dose (mmol/kg-bw/day) [2] does the source give for `O=C(Cc1cccs1)N[C@@H]1C(=O)N2C(C(=O)[O-])=C(C[n+]3ccccc3)CS[C@H]12` here?
Its maximum recommended daily dose (mmol/kg-bw/day) is 0.161.

For `NC(=O)c1ccccc1O`, which maximum recommended daily dose (mmol/kg-bw/day) (TherapeuticCategory: analgesic) is on record?
Its maximum recommended daily dose (mmol/kg-bw/day) is 0.316.

From PubChem BioAssay AID1195 (EPA DSSTox, 2008)
